Test results as given in patent US10829427B2, “Naphthoquinones, pro-drugs, and methods of use thereof” (The Board of Regents of the University of Texas System, priority 2015, dated 2020).
pIC50: −log10 of the molar value. Where two headings read alike, the source gives them in different places. Each block holds one compound with its values, some of them ahead of it.

What was measured:
Mia PaCa-2 cells = experiment: ATP assay (ATP depletion / cell viability) in Mia PaCa-2 cells; assay type: cell-based, human; conditions: for pIC50: read-out: Inhibition of cell viability of ATP assay IC50; for IC50/IC50 (β-lapachone/Compoud): Relative activity compare with β-lapachone in ATP depletion of Mia PaCa-2 cells
Method: (§1) In vitro anti-cancer activity of the compound were performed using ATP Assay Kit (Abcam, ab83355) to initially screen, and further performed using 7-day DNA assay.
(§2) Cell culture: endogenous NQO1 overexpressing human MIA PaCa-2 pancreactic and A549 NSCLC cancer cells were obtained (Bey, et al., 2007; Li, et al., 2011). Cancer cells were grown in DMEM with 5% FBS and Mycoplasma free, and cultured at 37° C. in a 5% CO2 95% air humidified atmosphere.
ATP assay: Cells were seeded into each well of a 96-well plate (15000 cells/well) 18 hours ahead of experiment. After aspiration of the media from each well, 100 μl drug-contained media was added instead, and further incubated for 2 hours. After incubation, 100 μl ATP assay kit mixture was added into every well. Following further shaking for 10 minutes with light proof, the data were collected by reading luminescence integrate 1 second per well.

A549 cells = experiment: Cell viability in A549 cells (7-day DNA assay); assay type: cell-based, human; conditions: relative to β-lapachone
Method: as §1, §2
DNA assay: Cells were seeded into each well of a 48-well plate (10000 cells/well) 24 hours ahead of experiment. After aspiration of the media from each well, 500 μl drug-contained media was added instead, and further incubated for 2 hours. Drugs were then removed, control growth medium was added, and cells were allowed to grow for an additional 7 days. Drugs were added to medium at a 1:1000 dilution immediately before administration to cells. DNA content (a measure of cell growth) was determined by fluoresence of the DNA dye Hoescht 33258 (Sigma), and read in a Cytofluor fluoresence plate reader. Data were expressed as relative growth with 6 repetitions.

MiaPaca 2 = experiment: Relative survival DNA assay, MiaPaca 2, with or without dicoumarol; assay type: cell-based, human; conditions: for pIC50: read-out: Inhibition of cell survival of DNA assay IC50; for DNA amount in survival assay relative to β-lapachone: MiaPaca 2, FIGS. 4A-4C
Method: (§3) Cell Lines and Culture. Endogenous NQO1 overexpressing human MiaPaca-2 (pancreatic carcinoma), A549 (None-small cell lung carcinoma), and MCF-7 (breast adenocarcinoma) were obtained (Bey, et al., 2007; Li, et al., 2011). All cell lines were grown in DMEM (Life Technologies) containing 5%-10% FBS (Fisher Scientific) in a 5% CO2 and 95% air incubator at 37° C.
(§4) Relative Survival Assays. Relative survival was assessed by DNA content and colony forming assays as described (Dong, et al., 2010). Briefly, for DNA content, cells were seeded at 1×10^4 per well in 48-well plates and allowed to attach overnight. Cells were then mock treated or treated with various doses of naphthaquinones (for 2 hours) in the presence or absence of dicoumarol as indicated. Drug-free medium was then added and cells were allowed to grow for 5 to 7 days until control cells reached ˜100% confluence. DNA content was then determined by Hoechst 33258 staining and fluorescence detection using a plate reader (Perkin-Elmer).

A549 = experiment: Relative survival DNA assay, A549, with or without dicoumarol; assay type: cell-based, human; conditions: for DNA amount in survival assay relative to β-lapachone: A549, FIGS. 4G-4I; for pIC50: read-out: Inhibition of cell survival of DNA assay IC50
Method: as §3, §4

MCF-7 = experiment: Relative survival DNA assay, MCF-7, with or without dicoumarol; assay type: cell-based, human; conditions: for pIC50: read-out: Inhibition of cell survival of DNA assay IC50; for DNA amount in survival assay relative to β-lapachone: MCF-7, FIGS. 4D-4F
Method: as §3, §4

H596 = experiment: Relative survival DNA assay, H596 (low NQO1 expression); assay type: cell-based; conditions: for pIC50: H596 (low NQO1 expression), Vehicle, read-out: Inhibition of cell survival of DNA assay IC50
Method: as §4

orthotopic A549 model = experiment: In vivo anti-tumor efficacy, NOD-SCID mice bearing orthotopic A549 model; conditions: for Survival relative to vehicle: orthotopic A549, FIG. 7C
Method: Formulation. β-lap-HPβCD formulation was prepared according to our previous report.^14 NQ-059 and HPβCD (1:45, w/w) were dissolved in EtOH, and then concentrated in vacuo to form a thin film or a sponge-like film. PBS was added, and a clear solution was formed with shaking. Immediately filtration through a Ø 0.45 µm filter (Whatman), a stable solution was afforded, whose concentration was quantified by UV-vis at 256 nm.
(§5) Survival and Antitumor Efficacies. 6- to 8-week-old NOD-SCID female mice were tail-vein administrated with luciferase gene-transfected A549 cells (1.0×106), and randomized into groups (n=7-13/group), monitored for tumor formation in the lungs using bioluminescence (BLI) following treatment with vehicle, β-lap-HPβCD, or NQ-059-HPβCD. An average of 1.0×10^7 total photons was used before any therapies were given as described (Huang, et al., 2012). Animals were treated with vehicle, β-lap-HPβCD (20 mg/kg), or NQ-059-HPβCD (15 and 12 mg/kg) via tail vein and repeated five times every 3 days. Tumor-bearing mice were imaged using BLI to estimate relative tumor volumes as described (Ma, et al., 2015) using D-luciferin (Promega, 2.5 mg, subcutaneously injected). Relative tumor volume estimates were derived from BLI images of mice captured using a Xenogen Vivovision IVIS Lumina Imager (60 s exposure time). Animals were monitored daily for survival and morbidity. Mortality was recorded over times as a result of cancer-related deaths or drug-related toxicities (≥20% body weight loss relative to the start of therapy). Athymic Nu/Nu nude female mice (18-20 grams) were commercially obtained (Harlan). Human xenografts were generated by injecting 2×10^6 MiaPaca-2 cells subcutaneously in PBS/Matrigel into 6-week-old mice. Tumors were measured at indicated times with digital calipers (Fisher Scientific), and tumor volumes calculated (length×width^2×0.5). Treatments were initiated when subcutaneous tumors reached an average size of >100 mm (Cao, et al., 2003).

[1] = system: subcutaneous MiaPaca-2 model; experiment: In vivo anti-tumor efficacy, nude mice bearing subcutaneous MiaPaca-2 model; parameters: species or system Athymic Nu/Nu nude female mice; conditions: subcutaneous MiaPaca-2 tumor model, FIG. 8
Method: as §5, with “Human xenografts were generated by injecting 2×10^6 MiaPaca-2 cells subcutaneously in PBS/Matrigel into 6-week-old mice.” left out, “Treatments were initiated when subcutaneous tumors reached an average size of >100 mm (Cao, et al., 2003).” left out

blood = experiment: Hemolysis assay; conditions: formulated with cyclodextran 1:30; relative to a blank cyclodextran or a DMSO vehicle, FIG. 9
Text: Hemolysis assay. Hemolysis was quantified and modified according to method previously described (Blanco, et al., 2010). Briefly, after treatment with the blood, the plasma was separated and tested with UV-Vis at 576 nm, and hemolysis was quantified comparing treatment group and control group.

red blood cells = experiment: Methemoglobinemia assay; conditions: formulated with cyclodextran 1:30; relative to a blank cyclodextran or a DMSO vehicle, FIG. 10
Method: Methemoglobinemia assay. Collected red blood cells were suspended in 96 well plates or single wells, then were treated with drug for certain time at 37° C. Immediately after the treatment completed, the cells were sit in ice-bath and lysed with 5% Triton X-100. The clear solution afforded were tested with UV-vis at 630 nm, and then were treated with […] K3FeCN6 for 1 min. The yellow solution afforded was tested again at 630 nm.

IC50/IC50 (β-lapachone/Compoud) (Mia PaCa-2 cells): >3
IC50/IC50 (β-lapachone/Compoud) (A549 cells): >3
Structure (SMILES): COCCOCCOCCOCCOC1=CC(=O)C(=O)c2c(NC(C)=O)cccc21 [Compound 48, N-(5-(2,5,8,11-tetraoxatridecan-13-yloxy)-7,8-dioxo-7,8-dihydronaphthalen-1-yl)acetamide]

IC50/IC50 (β-lapachone/Compoud) (Mia PaCa-2 cells): 1~2
IC50/IC50 (β-lapachone/Compoud) (A549 cells): 1~2
Structure (SMILES): CC(C)OC1=CC(=O)C(=O)c2c(O)cccc21 [Compound 38, 8-hydroxy-4-isopropoxynaphthalene-1,2-dione]

IC50/IC50 (β-lapachone/Compoud) (Mia PaCa-2 cells): 0.3~1
IC50/IC50 (β-lapachone/Compoud) (A549 cells): 0.3~1
Structure (SMILES): COCCOCCOC1=CC(=O)C(=O)c2c(NC(C)=O)cccc21 [Compound 49, N-(5-(2-(2-methoxyethoxy)ethoxy)-7,8-dioxo-7,8-dihydronaphthalen-1-yl)acetamide]

Further lines, the compound ahead of its results:

Structure (SMILES): CC(=O)Nc1cccc2c1C(=O)C(=O)C=C2OC(C)C [Compound 24, N-(5-isopropoxy-7,8-dioxo-7,8-dihydronaphthalen-1-yl)acetamide]
Fold (IC50 β-lap/IC50 NQ-059) (Mia PaCa-2 cells; ATP assay, MiaPac-2, Vehicle): 2.9
pIC50 (Mia PaCa-2 cells; Homo sapiens, MIA PaCa-2, MiaPac-2, Vehicle): 6.01
IC50/IC50 (β-lapachone/Compoud) (Mia PaCa-2 cells): >3
IC50/IC50 (β-lapachone/Compoud) (A549 cells): >3
Fold (IC50 β-lap/IC50 NQ-059) (MiaPaca 2; DNA assay, MiaPaca 2, Vehicle): 4.9
pIC50 (MiaPaca 2; Homo sapiens, MIA PaCa-2, MiaPaca 2, Dic (dicoumarol, NQO1 inhibitor)): < 5.00
pIC50 (MiaPaca 2; Homo sapiens, MIA PaCa-2, MiaPaca 2, Vehicle): 6.06
Activity relative to β-lapachone on the same plate (MiaPaca 2; MiaPac2, FIG. 5A): increased activity
DNA amount in survival assay relative to β-lapachone (MiaPaca 2): decreased DNA amounts at lower concentrations relative to β-lapachone
Activity relative to β-lapachone on the same plate (A549; A549, FIG. 5B): increased activity
DNA amount in survival assay relative to β-lapachone (A549): decreased DNA amounts at lower concentrations relative to β-lapachone
Fold (IC50 β-lap/IC50 NQ-059) (A549; DNA assay, A549, Vehicle): 3.9
pIC50 (A549; Homo sapiens, A549, A549, Dic (dicoumarol, NQO1 inhibitor)): < 5.00
pIC50 (A549; Homo sapiens, A549, A549, Vehicle): 5.90
Fold (IC50 β-lap/IC50 NQ-059) (MCF-7; DNA assay, MCF-7, Vehicle): 2.2
pIC50 (MCF-7; Homo sapiens, MCF7, MCF-7, Dic (dicoumarol, NQO1 inhibitor)): < 5.00
pIC50 (MCF-7; Homo sapiens, MCF7, MCF-7, Vehicle): 6.02
DNA amount in survival assay relative to β-lapachone (MCF-7): decreased DNA amounts at lower concentrations relative to β-lapachone
DNA amount in survival assay (H596; H596, FIG. 4J): lowest amount of DNA at the lowest concentration
pIC50 (H596; Homo sapiens, NCI-H596): < 5.00
Tumor growth via bioluminescence imaging (orthotopic A549 model; after 74 days, 12 mg/kg): some growth
Tumor growth via bioluminescence imaging (orthotopic A549 model; after day 44, 12 mg/kg): Neither 12 mg/kg or 15 mg/kg NQ-059 showed any tumor growth
Tumor growth via bioluminescence imaging (orthotopic A549 model; after day 44, 15 mg/kg): Neither 12 mg/kg or 15 mg/kg NQ-059 showed any tumor growth
Tumor volume relative to vehicle (orthotopic A549 model; orthotopic A549, FIG. 7B): significantly improved over the vehicle
Survival relative to vehicle (orthotopic A549 model): significantly improved over the vehicle
Tumor volume relative to the vehicle [1]: statistically significant improvement
Hemolysis (blood): reduced toxicity
Methemoglobinemia (red blood cells): reduced toxicity

Structure (SMILES): CC(C)OC1=CC(=O)C(=O)c2ccc(Cl)cc21 [Compound 34, 6-chloro-4-isopropoxynaphthalene-1,2-dione]
IC50/IC50 (β-lapachone/Compoud) (Mia PaCa-2 cells): 1~2
IC50/IC50 (β-lapachone/Compoud) (A549 cells): 0.3~1

Structure (SMILES): CC(C)OC1=CC(=O)C(=O)c2c(NS(C)(=O)=O)cccc21 [Compound 21, N-(5-isopropoxy-7,8-dioxo-7,8-dihydronaphthalen-1-yl)methanesulfonamide]
IC50/IC50 (β-lapachone/Compoud) (Mia PaCa-2 cells): >3
IC50/IC50 (β-lapachone/Compoud) (A549 cells): >3
DNA amount in survival assay relative to β-lapachone (MiaPaca 2): decreased DNA amounts at lower concentrations relative to β-lapachone
DNA amount in survival assay relative to β-lapachone (A549): decreased DNA amounts at lower concentrations relative to β-lapachone
DNA amount in survival assay relative to β-lapachone (MCF-7): decreased DNA amounts at lower concentrations relative to β-lapachone

Structure (SMILES): CC(C)OC1=CC(=O)C(=O)c2cc(Cl)c(Cl)cc21 [Compound 37, 6,7-dichloro-4-isopropoxynaphthalene-1,2-dione]
IC50/IC50 (β-lapachone/Compoud) (Mia PaCa-2 cells): 1~2
IC50/IC50 (β-lapachone/Compoud) (A549 cells): 0.3~1

Structure (SMILES): CC(C)OC1=CC(=O)C(=O)c2cc(Cl)ccc21 [Compound 4, 7-chloro-4-isopropoxynaphthalene-1,2-dione]
IC50/IC50 (β-lapachone/Compoud) (Mia PaCa-2 cells): 1~2
IC50/IC50 (β-lapachone/Compoud) (A549 cells): 1~2

Structure (SMILES): CCCCCCOC1=CC(=O)C(=O)c2c(NC(C)=O)cccc21 [Compound 28, N-(5-(hexyloxy)-7,8-dioxo-7,8-dihydronaphthalen-1-yl)acetamide]
IC50/IC50 (β-lapachone/Compoud) (Mia PaCa-2 cells): 1~2
IC50/IC50 (β-lapachone/Compoud) (A549 cells): 1~2

Structure (SMILES): CC1(C)CCC2=C(O1)c1ccccc1C(=O)C2=O [β-lapachone, reference compound]
pIC50 (Mia PaCa-2 cells; MiaPac-2, Vehicle): 5.55
pIC50 (MiaPaca 2; MiaPaca 2, Dic (dicoumarol, NQO1 inhibitor)): < 5.00
pIC50 (MiaPaca 2; MiaPaca 2, Vehicle): 5.36
pIC50 (A549; A549, Dic (dicoumarol, NQO1 inhibitor)): < 5.00
pIC50 (A549; A549, Vehicle): 5.31
pIC50 (MCF-7; MCF-7, Dic (dicoumarol, NQO1 inhibitor)): 5.04
pIC50 (MCF-7; MCF-7, Vehicle): 5.68
pIC50 (H596): < 5.00
Tumor growth via bioluminescence imaging (orthotopic A549 model; after 74 days, β-lap-HPβCD 20 mg/kg): some tumor growth
Tumor growth via bioluminescence imaging (orthotopic A549 model; after day 44, β-lap-HPβCD 20 mg/kg): some minor tumor growth
Survival relative to vehicle (orthotopic A549 model): small improvement over vehicle
Tumor volume relative to the vehicle [1]: did not
